Source: patent US11938138B2, “Methods for improved treatment of cancer” (Washington University, priority 2020, dated 2024)
Read-outs that look alike come from different tables or passages of the source.

Assays:
NMC = details: cited from earlier work; for toxicities of interest: 4 patients (case series)
[1] = tested on: Relapsed/refractory leukemia; details: cited from earlier work
NMC, CRPC, NSCLC = details: cited from earlier work
[2] = tested on: Relapsed/refractory lymphoma or multiple myeloma; details: cited from earlier work
Acute leukemia, MDS = details: cited from earlier work; for DLTs: G3
K562 cells = assay: Cell cycle perturbation of K562 cells (DNA content, CD24, annexin V/PI); type: cell-based, human; details: for G2 arrest / cells in G1 phase / G1 arrest: 36 hours of treatment; for G2 arrest: one-way ANOVA p<0.01; for cells in G1 phase / G1 arrest: CVT-313 2 μM (p<0.05), lovastatin 12 μM (p<0.01), FIG. 14G
Experimental: CD24 surface protein was quantified using monoclonal human antibodies. Cells were spun down at 300 g for 3 minutes and washed twice with 1 mL of Cell Staining Buffer. The cell pellet was then resuspended in 50 μl of Cell Staining Buffer containing 0.2 μg of either CD24-APC or CD24-BV421. The tube was rotated at 4° C. in the dark for 30 minutes. After, cells were washed twice (as before) and finally resuspended in 200 μl of Cell Staining Buffer. Cells were excited with 450/45 and 660/20 lasers (wavelength/filter bandwidth, both in nm). For concomitant analysis of DNA content, we used CD24-APC. Cells were incubated with 10 μg/ml Hoechst 33342 in 5 mL of growth medium for 30 minutes prior to the staining protocol. For simultaneous assessment of apoptosis, cells were stained with CD24-BV421. After the final wash, instead of resuspending in 200 μl of Cell Staining Buffer, cells were washed twice with Annexin V Staining Buffer. Cells were then incubated in 50 μl Annexin V Staining Buffer containing 0.2 μg Annexin V-FITC and 100 μg/ml propidium iodide (PI). The reaction was incubated for 15 minutes at room temperature in the dark. Afterward, we added 150 μl of Annexin V Staining Buffer and proceeded to flow cytometry. All samples were measured on a Beckman-Coulter CytoFLEX S flow cytometer. Cells were excited with 450/45, 525/40, and 610/20 lasers. We collected 10,000 events per sample. The resulting data were processed with FlowJo Software for Mac Version 10.
We perturbed the cell cycle with lovastatin and nocodazole, two drugs classically used to synchronize cells in culture (Jackman and O'Connor, 2001), as well as the cyclin-dependent kinase inhibitors CVT-313 (Brooks et al., 1997) and RO-3306 (Vassilev et al., 2006). All drugs were dissolved in DMSO except nocodazole, which was dissolved in ethanol. […] Media was refreshed every 48 hours. After 36 hours of treatment, we stained for CD24 levels and nuclear DNA content. We gated for live, single cells using the forward scatter (FSC) and side scatter channels (SSC). Univariate cell cycle analysis was performed with FlowJo. We confirmed that all drugs perturbed cell cycle by altering the proportions of cells in either G1 or G2/M phase (FIG. 14G). […] Cultures remained under drug treatment until five days had elapsed, at which point we measured CD24 levels and stained for apoptosis (FIG. 14H). As before, we set gates to exclude debris to quantitate annexin V and PI, and measured CD24 in live cells gated on FSC and SSC. The G2 inhibitors, in particular, had very few cells in the FSC/SSC gate (typically below 5%).
For the analysis of annexin V levels in either JQ1- or DMSO-treated CD24^high and CD24^low cells, we used a three-way ANOVA with treatment, cell state, and day as independent variables. […] Multiple hypothesis correction was performed using Tukey's honestly significant difference. For the cell cycle inhibitor experiment, data were analyzed using a one-way ANOVA with Dunnett's post hoc test using either DMSO or EtOH (for RO-3306) as controls.

[3] = tested on: Advanced solid tumors or NHL; details: cited from earlier work; for DLTs: G3, at 80 mg, 8 patients
[4] = tested on: Relapsed/refractory lymphoma; details: cited from earlier work
[5] = nocodazole 40 ng/μl, RO-3306 4.5 μM

## Cc1sc2c(c1C)C(c1ccc(Cl)cc1)=N[C@@H](CC(=O)Nc1ccc(O)cc1)c1nnc(C)n1-2 [MK-8628/OTX015]
NMC; G2, dysgeusia
  toxicities of interest: dysgeusia,
NMC; G2, fatigue
  toxicities of interest: G2 fatigue
NMC; G2, hyperglycemia
  toxicities of interest: hyperglycemia,
NMC; G2, nausea
  toxicities of interest: G2 nausea, G2
NMC; G3
  toxicities of interest: thrombocytopenia,
NMC; number of patients of 4
  Responses observed: PR: 2
  Responses observed: SD: 1
[1]; number of patients of 36
  Responses observed: CR: 1 CR; 1 CRi
  Responses observed: CRi (platelets): 1 CR; 1 CRi
  Responses observed: with disappearance of hypertrophied gums: clearance, 1
[1]; q.d.s., 36 patients
  MTD: 120 mg
[1]; toxicity incidence
  abdominal pain: pain (11%),
  decreased factor VII: (21%)
  dysgeusia: (11%),
NMC, CRPC, NSCLC; number of patients of 47
  Responses observed: PR: 4
NMC, CRPC, NSCLC; number of patients of 47, for 4-8 months
  Responses observed: SD: 5
NMC, CRPC, NSCLC; toxicity incidence
  G3-4 thrombocytopenia: (20%), G3
  G3 anemia: (9%), G3
  G3 fatigue: fatigue (7%)
[2]; G3
  DLTs: hyponatremia
[2]; G4, neutropenia
  DLTs: neutropenia,
[2]; G4, thrombocytopenia
  DLTs: thrombocytopenia, G4
[2]; number of patients of 45
  Responses observed: OR (DLBCL): 3 OR
  Responses observed: with improvement of pleural effusion: (DLBCL), 1
  Responses observed: with resolution of B symptoms: effusion; 2
  Responses observed: with responses not meeting PR criteria: 2 with
[2]; q.d.s. × 14/21 days, 45 patients
  RP2D: 80 mg
[2]; toxicity incidence
  anemia: (91%)
  diarrhea: (47%),
  dysgeusia: (15%),
  fatigue: (27%),
Acute leukemia, MDS; diarrhea
  DLTs: diarrhea, G3
Acute leukemia, MDS; fatigue
  DLTs: fatigue.
Acute leukemia, MDS; limited compliance
  diarrhea: (34%),
  rash: rash (20%)
Acute leukemia, MDS; number of patients of 41
  Responses observed: CR: 2
  Responses observed: CRi (platelets) × 2 months: 1
Acute leukemia, MDS; q.d.s. × 14/21 days, 41 patients
  RP2D: 80 mg

## O=C1NC(=NCc2cccs2)S/C1=C\c1ccc2ncccc2c1 [RO-3306]
K562 cells; [5]
  G2 arrest: significant G2 arrest

## COc1ccc(CNc2nc(N(CCO)CCO)nc3c2ncn3C(C)C)cc1 [CVT-313]
K562 cells
  cells in G1 phase / G1 arrest: significant increase

## CC[C@H](C)C(=O)O[C@H]1C[C@@H](C)C=C2C=C[C@H](C)[C@H](CC[C@@H]3C[C@@H](O)CC(=O)O3)[C@H]21 [lovastatin]
K562 cells
  cells in G1 phase / G1 arrest: significant decrease

## CNC(=O)N1N=C(c2ccc(N3CCN(C)CC3)cc2)c2cc(OC)c(OC)cc2C[C@@H]1C [BAY1238097]
[3]; 5-40 mg 2×/week in 21 day cycle
  Development (as DLTs occurred at subtherapeutic doses of drug): halted as
[3]; 10 and 40 mg cohorts
  Recurrent headaches, patients: in 50%
[3]; headache
  DLTs: headache,
[3]; low back pain
  DLTs: G3 low back
[3]; vomiting
  DLTs: G3 vomiting,

## COC(=O)Nc1nc2ccc(C(=O)c3cccs3)cc2[nH]1 [nocodazole]
K562 cells; [5]
  G2 arrest: significant G2 arrest
K562 cells; K562, nocodazole 40 ng/μl, RO-3306 4.5 μM
  surviving cells after five days of treatment: very few surviving cells

## Cc1noc2c1-c1ccccc1C(c1ccc(Cl)cc1)=N[C@H]2CC(N)=O [CPI-0610]
[4]; dose dependent, reversible
  primary toxicity: thrombocytopenia;
[4]; number of patients of 44
  Responses observed: CR: 2
  Responses observed: PR: 1
  Responses observed: SD: PR; 6 SD
  Responses observed: with responses not qualifying as PR: 5 with
[4]; of 44 patients
  patients with G3 diarrhea: 1 patient with
  patients with G4 thrombocytopenia: 1 patient with
